According to patent publication US7763728B2, “Tetrahydropyridothiophenes” (4SC AG, priority 2005, dated 2010):

Assays:
[1] = system: RKO (RKOp27) human colon adenocarcinoma cells; assay: Alamar Blue cell viability assay, anti-proliferative/cytotoxic activity on proliferating (uninduced) RKOp27 cells; assay type: cell-based; settings: 72 hours incubation, absence of the inducer Ponasterone A, read-out: IC50 RKO p27 uninduced (proliferating)
Method: The anti-proliferative/cytotoxic activity of the compounds described herein, can be tested on subclones of RKO (RKOp27) human colon adenocarcinoma cells (Schmidt et al., Oncogene 19, 2423-2429; 2000) using the Alamar Blue cell viability assay (described in O'Brien et al. Eur J Biochem 267, 5421-5426, 2000). The compounds are dissolved as 20 mM solutions in dimethylsulfoxide (DMSO) and subsequently diluted in semi-logarithmic steps. DMSO dilutions are further diluted 1:100 into Dulbecco's modified Eagle's medium (DMEM) containing 10% fetal calf serum to a final concentration twice as much as the final concentration in the test. RKO subclones are seeded into 96 well flat bottom plates at a density of 5000 cells per well in a volume of 50 μl per well. 24 hours after seeding the 50 μl each of the compound dilutions in DMEM medium are added into each well of the 96 Well plate. Each compound dilution is tested as quadruplicates. Wells containing untreated control cells are filled with 50 μl DMEM medium containing 1% DMSO. The cells are then incubated with the substances for 72 hours at 37° C. in a humified atmosphere containing 5% carbon dioxide. To determine the viability of the cells, 10 μl of an Alamar Blue solution (Biosource) are added and the fluorescence is measured at an extinction of 544 nm and an emission of 590 nm. For the calculation of the cell viability the emission value from untreated cells is set as 100% viability and the emission rates of treated cells are set in relation to the values of untreated cells. Viabilities are expressed as % values.
The corresponding IC50 values of the compounds for anti-proliferative/cytotoxic activity are determined from the concentration-effect curves.
Representative IC50 values for anti-proliferation/cytotoxicity determined in the mentioned assay follow from the following table A, in which the numbers of the compounds correspond to the numbers of the examples.

[2] = system: RKO colon adenocarcinoma cells (RKOp27) arrested by the expression of ectopic p27Kip1; assay: Alamar Blue cell viability assay on RKOp27 cells arrested by p27Kip1 expression induced by Ponasterone A; assay type: cell-based; settings: Homo sapiens, 72 hours incubation, 10 μM Ponasterone A, read-out: IC50 RKO p27 induced (arrested)
Method: To determine the cell cycle specific mode of action, subclones of RKO colon adenocarcinoma cells (RKOp27 or RKOp21 as described by Schmidt et al. in Oncogene 19, 2423-2429; 2000) are seeded into 96 well flat bottom plates at a density of 15000 cells per well in a volume of 50 μl per well in DMEM growth medium with 10% FCS containing 10 μM Ponasterone A. 24 hours after seeding the 50 μl each of the compound dilutions in DMEM medium are added into each well of the 96 Well plate. Each compound dilution is tested as quadruplicates. Wells containing untreated control cells are filled with 50 μl DMEM medium containing 1% DMSO. The cells are then incubated with the substances for 72 hours at 37° C. in a humidified atmosphere containing 5% carbon dioxide. To determine the viability of the cells, 10 μl of an Alamar Blue solution (Biosource) are added and the fluorescence was measured at an extinction of 544 nm and an emission of 590 nm. For the calculation of the cell viability the emission value from untreated cells is set as 100% viability and the emission rates of treated cells are set in relation to the values of untreated cells. Viabilities are expressed as % values. Viability is compared of proliferating cells grown in the absence of the inducer Ponasterone A, versus viability of cells arrested by the expression of ectopic p27Kip1 induced by Ponasterone A.

| IC50 [2] [nM] | Compound | IC50 [1] [nM] |
| --- | --- | --- |
| ≥ 40000 | CCOc1ccccc1C(C)CC(=O)Nc1sc2c(c1C#N)CCN(C(=O)CCc1cccnc1)C2 (racemic) [Example 78, (RS)—N-[3-Cyano-6-(3-pyridin-3-yl-propanoyl)-4,5,6,7-tetrahydro-thieno[2,3-c]pyridin-2-yl]-3-(2-ethoxy-phenyl)-butyramide] | 300 to 2000 |
| > 100000 | COc1cccc(C(C)CC(=O)Nc2sc3c(c2C#N)CCN(C(=O)CCc2ccncc2)C3)c1 (racemic) [Example 79, (RS)—N-[3-Cyano-6-(3-pyridin-4-yl-propanoyl)-4,5,6,7-tetrahydro-thieno[2,3-c]pyridin-2-yl]-3-(3-methoxy-phenyl)-butyramide] | 300 to 2000 |
| ≥ 40000 | COc1ccccc1C(C)CC(=O)Nc1sc2c(c1C#N)CCN(C(=O)Cn1ccnc1)C2 (racemic) [Example 82, (RS)—N-[3-Cyano-6-(2-Imidazol-1-yl-ethanoyl)-4,5,6,7-tetrahydro-thieno[2,3-c]pyridin-2-yl]-3-(2-methoxy-phenyl)-butyramide] | 300 to 2000 |
| ≥ 40000 | CCOc1ccccc1C(C)CC(=O)Nc1sc2c(c1C#N)CCN(C(=O)Cn1ccnc1)C2 (racemic) [Example 83, (RS)—N-[3-Cyano-6-(2-imidazol-1-yl-ethanoyl)-4,5,6,7-tetrahydro-thieno[2,3-c]pyridin-2-yl]-3-(2-ethoxy-phenyl)-butyramide] | ≤ 300 |
| > 100000 | CCCC(=O)N1CCc2c(sc(NC(=O)CC(C)c3cccc(OC)c3)c2C#N)C1 (racemic) [Example 87, (RS)—N-(6-Butyryl-3-cyano-4,5,6,7-tetrahydro-thieno[2,3-c]pyridin-2-yl)-3-(3-methoxy-phenyl)-butyramide] | 300 to 2000 |
| > 100000 | CCCC(=O)N1CCc2c(sc(NC(=O)CC(C)c3ccccc3OC)c2C#N)C1 (racemic) [Example 89, (RS)—N-(6-Butyryl-3-cyano-4,5,6,7-tetrahydro-thieno[2,3-c]pyridin-2-yl)-3-(2-methoxy-phenyl)-butyramide] | ≤ 300 |
| > 100000 | CCCC(=O)N1CCc2c(sc(NC(=O)CC(C)c3ccccc3OCC)c2C#N)C1 (racemic) [Example 90, (RS)—N-(6-Butyryl-3-cyano-4,5,6,7-tetrahydro-thieno[2,3-c]pyridin-2-yl)-3-(2-ethoxy-phenyl)-butyramide] | ≤ 300 |
| > 100000 | COc1ccccc1C(C)CC(=O)Nc1sc2c(c1C#N)CCN(C(=O)CCc1ccccn1)C2 (racemic) [Example 94, (RS)—N-[3-Cyano-6-(3-pyridin-2-yl-propanoyl)-4,5,6,7-tetrahydro-thieno[2,3-c]pyridin-2-yl]-3-(2-methoxy-phenyl)-butyramide] | 300 to 2000 |
| ≥ 40000 | COc1ccccc1C(C)CC(=O)Nc1sc2c(c1C#N)CCN(C(=O)CCn1ccnc1)C2 (racemic) [Example 99, (RS)—N-[3-Cyano-6-(3-imidazol-1-yl-propanoyl)-4,5,6,7-tetrahydro-thieno[2,3-c]pyridin-2-yl]-3-(2-methoxy-phenyl)-butyramide] | 300 to 2000 |
| ≥ 40000 | CCOc1ccccc1C(C)CC(=O)Nc1sc2c(c1C#N)CCN(C(=O)CCn1ccnc1)C2 (racemic) [Example 100, (RS)—N-[3-Cyano-6-(3-imidazol-1-yl-propanoyl)-4,5,6,7-tetrahydro-thieno[2,3-c]pyridin-2-yl]-3-(2-ethoxy-phenyl)-butyramide] | 300 to 2000 |

Second part, the molecule before the results:

| Compound | IC50 [2] [nM] | IC50 [1] [nM] |
| --- | --- | --- |
| COc1ccccc1CCC(=O)Nc1sc2c(c1C#N)CCN(C(=O)CC(C)n1ccnc1)C2 (racemic) [Example 56, N-[3-Cyano-6-((RS)-3-imidazol-1-yl-butanoyl)-4,5,6,7-tetrahydro-thieno[2,3-c]pyridin-2-yl]-3-(2-methoxy-phenyl)-propionamide] | ≥ 40000 | 300 to 2000 |
| COc1cccc(CCC(=O)Nc2sc3c(c2C#N)CCN(C(=O)CC(C)n2ccnc2)C3)c1 (racemic) [Example 57, N-[3-Cyano-6-((RS)-3-imidazol-1-yl-butanoyl)-4,5,6,7-tetrahydro-thieno[2,3-c]pyridin-2-yl]-3-(3-methoxy-phenyl)-propionamide] | ≥ 40000 | 300 to 2000 |
| CCOc1cccc(C(C)CC(=O)Nc2sc3c(c2C#N)CCN(C(=O)Cc2ccccn2)C3)c1 (racemic) [Example 61, (RS)—N-[3-Cyano-6-(2-pyridin-2-yl-ethanoyl)-4,5,6,7-tetrahydro-thieno[2,3-c]pyridin-2-yl]-3-(3-ethoxy-phenyl)-butyramide] | > 100000 | 300 to 2000 |
| COc1ccccc1C(C)CC(=O)Nc1sc2c(c1C#N)CCN(C(=O)Cc1ccccn1)C2 (racemic) [Example 62, (RS)—N-[3-Cyano-6-(2-pyridin-2-yl-ethanoyl)-4,5,6,7-tetrahydro-thieno[2,3-c]pyridin-2-yl]-3-(2-methoxy-phenyl)-butyramide] | > 100000 | ≤ 300 |
| CCOc1ccccc1C(C)CC(=O)Nc1sc2c(c1C#N)CCN(C(=O)Cc1ccccn1)C2 (racemic) [Example 63, (RS)—N-[3-Cyano-6-(2-pyridin-2-yl-ethanoyl)-4,5,6,7-tetrahydro-thieno[2,3-c]pyridin-2-yl]-3-(2-ethoxy-phenyl)-butyramide] | ≥ 10000 | ≤ 300 |
| COc1cccc(C(C)CC(=O)Nc2sc3c(c2C#N)CCN(C(=O)Cc2cccnc2)C3)c1 (racemic) [Example 64, (RS)—N-[3-Cyano-6-(2-pyridin-3-yl-ethanoyl)-4,5,6,7-tetrahydro-thieno[2,3-c]pyridin-2-yl]-3-(3-methoxy-phenyl)-butyramide] | ≥ 40000 | 300 to 2000 |
| COc1ccccc1C(C)CC(=O)Nc1sc2c(c1C#N)CCN(C(=O)Cc1cccnc1)C2 (racemic) [Example 66, (RS)—N-[3-Cyano-6-(2-pyridin-3-yl-ethanoyl)-4,5,6,7-tetrahydro-thieno[2,3-c]pyridin-2-yl]-3-(2-methoxy-phenyl)-butyramide] | > 100000 | ≤ 300 |
| CCOc1ccccc1C(C)CC(=O)Nc1sc2c(c1C#N)CCN(C(=O)Cc1cccnc1)C2 (racemic) [Example 67, (RS)—N-[3-Cyano-6-(2-pyridin-3-yl-ethanoyl)-4,5,6,7-tetrahydro-thieno[2,3-c]pyridin-2-yl]-3-(2-ethoxy-phenyl)-butyramide] | > 100000 | ≤ 300 |
| CCOc1cccc(C(C)CC(=O)Nc2sc3c(c2C#N)CCN(C(=O)Cc2ccncc2)C3)c1 (racemic) [Example 69, (RS)—N-[3-Cyano-6-(2-pyridin-4-yl-ethanoyl)-4,5,6,7-tetrahydro-thieno[2,3-c]pyridin-2-yl]-3-(3-ethoxy-phenyl)-butyramide] | > 100000 | 300 to 2000 |
| COc1ccccc1C(C)CC(=O)Nc1sc2c(c1C#N)CCN(C(=O)Cc1ccncc1)C2 (racemic) [Example 70, (RS)—N-[3-Cyano-6-(2-pyridin-4-yl-ethanoyl)-4,5,6,7-tetrahydro-thieno[2,3-c]pyridin-2-yl]-3-(2-methoxy-phenyl)-butyramide] | ≥ 40000 | ≤ 300 |
| CCOc1ccccc1C(C)CC(=O)Nc1sc2c(c1C#N)CCN(C(=O)Cc1ccncc1)C2 (racemic) [Example 71, (RS)—N-[3-Cyano-6-(2-pyridin-4-yl-ethanoyl)-4,5,6,7-tetrahydro-thieno[2,3-c]pyridin-2-yl]-3-(2-ethoxy-phenyl)-butyramide] | > 100000 | ≤ 300 |
| COc1ccccc1C(C)CC(=O)Nc1sc2c(c1C#N)CCN(C(=O)CCc1cccnc1)C2 (racemic) [Example 77, (RS)—N-[3-Cyano-6-(3-pyridin-3-yl-propanoyl)-4,5,6,7-tetrahydro-thieno[2,3-c]pyridin-2-yl]-3-(2-methoxy-phenyl)-butyramide] | > 100000 | 300 to 2000 |
